{
  "source": "paper PMC10916352",
  "about": "“Safety Evaluation of a Prototypical Diazirine-Based Covalent Crosslinker and Molecular Adhesive” (International Journal of Toxicology, 2023)",
  "key": {"[1]": {"tested_on": "Salmonella typhimurium TA98", "assay": "Bacterial reverse mutation test (Ames), strain TA98", "assay_type": "cell-based", "details": "for Revertant Colonies (With S9), plates A, B, C / Revertant Colonies (Without S9), plates A, B, C: individual plates", "method": "The reverse mutation test was performed to determine the potential of BondLynx and/or its metabolites to induce reverse mutations at the histidine locus of Salmonella typhimurium.[26],[27] The test employs strains of Salmonella typhimurium carrying mutations in the genes involved in histidine production, such that they are only able to grow in histidine supplemented culture media. Upon exposure to mutagenic materials, these mutations may be reversed, thereby restoring the ability to grow in histidine-free media. When grown in the presence of the test compound on media with a small amount of histidine, tester strains grow briefly to allow the opportunity for mutation, followed by proliferation of revertant colonies upon depletion of the provided histidine. Thus, the number of revertant colonies following incubation is indicative of the ability of the test compound to induce mutations.\nTests were performed on two strains of the bacteria (TA98 and TA100) in the absence and presence of an exogenous mammalian metabolic activation system (5% v/v S9). Positive controls and BondLynx were suspended in dimethyl sulfoxide (DMSO) for testing, and DMSO served as the vehicle control. Positive controls consisted of 2-nitrofluorene (10 μg/plate) for the TA98 strain without S9, methyl mesylate (650 μg/plate) for the TA100 strain without S9, and 2-aminoanthracene for both strains with S9 (1 μg/plate for TA98 and 5 μg/plate for TA100). Eight concentrations of BondLynx (1.7, 5.4, 17, 52, 164, 512, 1600 and 5000 μg/plate) were tested in triplicate. The vehicle control was tested in triplicate and the positive controls were tested singular.\nTest solutions were prepared by pre-incubating .1 mL fresh bacterial culture (10^9 cells/mL), .1 mL of a BondLynx dilution or control solution, and .5 mL of S9 mix or .1 M phosphate buffer for 30 min before adding to 3 mL of molten (45 ± 2°C) top agar. After mixing in a vortex, agar solutions were poured onto selective agar plates. Upon solidification, the prepared plates were inverted and incubated at 37.0 ± 1.0°C for 48 ± 4 h. Following incubation, revertant colonies were counted with a Sorcerer Colony Counter. The condition of the bacterial background lawn was evaluated macroscopically and/or microscopically using a dissecting microscope when considered necessary."}, "isolated bovine cornea": {"tested_on": "isolated bovine cornea", "assay": "Bovine Corneal Opacity and Permeability test (BCOP)", "design": "key to Mean Opacity Change: mean of final − initial opacity; opacity = (I0/I − 0.9894)/0.0251", "method": "The BCOP Assay was performed to evaluate the eye hazard potential of BondLynx, as measured by its ability to induce opacity and increase permeability in an isolated bovine cornea. The BCOP is an in vitro model that provides short-term maintenance of normal physiological and biological function of the bovine cornea in an isolated system so that eye damage can be assessed by quantitative measurements of changes in corneal opacity and permeability.[45],[46]\nTests were performed using bovine corneas isolated from the eyes of young cattle after slaughter and transported in biological saline under cooled conditions. […] BondLynx was ground with a mortar and pestle and applied directly to the corneas as a solid. Tests were performed in triplicate.\nBovine eyes were checked for unacceptable defects, such as opacity, scratches, pigmentation, and neovascularization upon receipt by removing them from the physiological saline and holding them in the light. Corneas were isolated from acceptable specimens and stored in a petri dish with cMEM (Eagle’s Minimum Essential Medium with 1% v/v L-glutamine and 1% v/v foetal bovine serum) at 32 ± 1°C. Isolated corneas were mounted in a corneal holder with the endothelial side against the O-ring of the posterior half of the holder and the anterior half of the holder tightened on top of the cornea with screws. The compartments of the corneal holder were filled with cMEM and the corneas were incubated for a minimum of 1 h at 32 ± 1°C. The initial corneal opacity was determined by replacing the medium in both compartments with fresh cMEM and using an opacitometer to measure the opacity against a cMEM filled chamber. Only corneas with an initial opacity <7 were used for testing.\nA total of three samples were prepared for each test item by removing the medium from the anterior compartment of the holder and applying 750 μL of positive or negative control, or 306.6-333.6 mg of BondLynx. The corneal holders were positioned so that the test item uniformly covered the cornea within, and the entire assembly was incubated at 32 ± 1°C for 240 ± 10 min. The test item was then removed, and the epithelium was washed at least three times with MEM containing phenol red. Corneas were visually inspected for pH effects and dissimilar opacity patterns before refilling both compartments with fresh cMEM.\nCorneal opacity was measured by the diminution of light (I = luminous flux per area) passing through the cornea. The opacity value was calculated according to the formula: Opacity=I0/I−0.9894/0.0251 where I0 is the empirically determined illuminance through a cornea holder with just windows and medium and I is the measured illuminance through a holder with a cornea. The change in opacity for each individual cornea was calculated by subtracting the initial opacity from the final post-treatment reading, and the corrected opacity was calculated by subtracting the average change in opacity of the negative control corneas (if > 0) from the change in opacity for corneas treated with BondLynx or positive control.\nFollowing the final opacity measurement, permeability of the cornea to Na-fluorescein was evaluated by removing the medium from both corneal holder compartments, then refilling the posterior compartment with fresh cMEM and the anterior compartment with 1 mL of Na-fluorescein in cMEM (5 mg/mL). The corneal holders were positioned so that the test item uniformly covered the cornea within, and the entire assembly was incubated at 32 ± 1°C for 90 ± 5 min. The medium from the posterior compartment was then removed, and a 360 μL aliquot was placed in a 96-well plate to measure the OD490 in triplicate. Any sample with an OD490 that was 1.500 or higher was diluted to bring the OD490 into the acceptable range. The corrected OD490 was calculated by subtracting the average change in OD490 for the negative control (if > 0) from the change in OD490 of either BondLynx or positive control treated cornea."}, "[2]": {"details": "TA98, without S9, 1600 μg/plate"}, "[3]": {"details": "TA98, without S9, 5000 μg/plate"}},
  "note": "Where “and” joins values, the source holds several entries; their conditions need not be identical. Equal values may be shown once.",
  "data": [
    {"compound": "FC(F)(F)C1(c2ccc(C(c3ccc(C4(C(F)(F)F)N=N4)cc3)(C(F)(F)F)C(F)(F)F)cc2)N=N1", "note": "[BondLynx, 2,2-bis-[4-[3-(trifluoromethyl)-3H-diazirin-3-yl]phenyl]hexafluoropropane]", "values": [
      {"measurement": "Mutagenicity conclusion", "setting": "[1]; TA98, absence and presence of S9, 1.7 to 5000 μg/plate", "value": "non-mutagenic"},
      {"measurement": "Total number of revertants relative to concurrent vehicle control", "setting": "[1]; TA98, vs DMSO vehicle control", "value": "less than three times"},
      {"measurement": "Revertant Colonies (With S9), Mean ± SD", "setting": "[1]; TA98, with S9, 1.7 μg/plate", "value": "20 ± 9"},
      {"measurement": "Revertant Colonies (With S9), plates A, B, C", "setting": "[1]; TA98, with S9, 1.7 μg/plate", "value": "10 and 23 and 26"},
      {"measurement": "Revertant Colonies (With S9), Mean ± SD", "setting": "[1]; TA98, with S9, 5.4 μg/plate", "value": "13 ± 8"},
      {"measurement": "Revertant Colonies (With S9), plates A, B, C", "setting": "[1]; TA98, with S9, 5.4 μg/plate", "value": "4 and 15 and 19"},
      {"measurement": "Revertant Colonies (With S9), Mean ± SD", "setting": "[1]; TA98, with S9, 1600 μg/plate", "value": "17 ± 8"},
      {"measurement": "Revertant Colonies (With S9), plates A, B, C", "setting": "[1]; TA98, with S9, 1600 μg/plate", "value": "26 and 16 and 10"},
      {"measurement": "Revertant Colonies (With S9), Mean ± SD", "setting": "[1]; TA98, with S9, 5000 μg/plate", "value": "13 ± 5"},
      {"measurement": "Revertant Colonies (With S9), plates A, B, C", "setting": "[1]; TA98, with S9, 5000 μg/plate", "value": "8 and 16 (2×)"},
      {"measurement": "Revertant Colonies (Without S9), Mean ± SD", "setting": "[1]; TA98, without S9, 1.7 μg/plate", "value": "9 ± 2"},
      {"measurement": "Revertant Colonies (Without S9), plates A, B, C", "setting": "[1]; TA98, without S9, 1.7 μg/plate", "value": "8 and 11 and 7"},
      {"measurement": "Revertant Colonies (Without S9), Mean ± SD", "setting": "[1]; TA98, without S9, 5.4 μg/plate", "value": "8 ± 4"},
      {"measurement": "Revertant Colonies (Without S9), plates A, B, C", "setting": "[1]; TA98, without S9, 5.4 μg/plate", "value": "4 and 12 and 8"},
      {"measurement": "Revertant Colonies (Without S9), Mean ± SD", "setting": "[1]; TA98, without S9, 17 μg/plate", "value": "13 ± 4"},
      {"measurement": "Revertant Colonies (Without S9), plates A, B, C", "setting": "[1]; TA98, without S9, 17 μg/plate", "value": "15 and 11 and 12"},
      {"measurement": "Revertant Colonies (Without S9), Mean ± SD", "setting": "[1]; [2]", "value": "9 ± 5"},
      {"measurement": "Revertant Colonies (Without S9), plates A, B, C", "setting": "[1]; [2]", "value": "7 and 15 and 5"},
      {"measurement": "Revertant Colonies (Without S9), Mean ± SD", "setting": "[1]; [3]", "value": "14 ± 3"},
      {"measurement": "Revertant Colonies (Without S9), plates A, B, C", "setting": "[1]; [3]", "value": "18 and 12 (2×)"},
      {"measurement": "Cytotoxicity (condition of microcolony lawn)", "setting": "[1]; absence of S9, higher concentrations", "value": "slight thinning of the microcolony lawn"},
      {"measurement": "Cytotoxicity (condition of microcolony lawn)", "setting": "[1]; presence of S9, any tested dose level", "value": "toxicity was not observed"},
      {"measurement": "Opacity", "setting": "isolated bovine cornea; 240 min exposure, individual corneas", "value": "0.9 and 0.7"},
      {"measurement": "Appearance of corneas after treatment", "setting": "isolated bovine cornea; 240 min of treatment", "value": "clear"},
      {"measurement": "UN GHS eye damage classification", "setting": "isolated bovine cornea; IVIS <3: No Category", "value": "does not require classification for eye damage or irritation"},
      {"measurement": "pH effects in the rinsing medium", "setting": "isolated bovine cornea; after 240 min exposure", "value": "No pH effects"},
      {"measurement": "Corrected Opacity Change", "setting": "isolated bovine cornea; individual corneas", "value": "1.6 and 0.9 and 0.7"},
      {"measurement": "Final Opacity", "setting": "isolated bovine cornea; individual corneas, after 240 min treatment", "value": "1.9 and 0.9 and 2.5"},
      {"measurement": "Initial Opacity", "setting": "isolated bovine cornea; individual corneas, before treatment", "value": "0.3 and 0 and 1.8"},
      {"measurement": "Opacity Change", "setting": "isolated bovine cornea; individual corneas, final minus initial", "value": "1.6 and 0.9 and 0.7"},
      {"measurement": "IVIS", "setting": "isolated bovine cornea; individual corneas, opacity + 15 × OD490", "value": "0.9 and 1.0"},
      {"measurement": "Mean IVIS ± SD", "setting": "isolated bovine cornea; three corneas", "value": "1.2 ± 0.4"},
      {"measurement": "Mean Opacity Change", "setting": "isolated bovine cornea; three corneas", "value": 1.1}
    ]}
  ]
}
